Experimental data as given in patent US10239861B2, “Therapeutic compounds and uses thereof” (GENENTECH, INC., priority 2015, dated 2019).

Target: PCAF bromodomain (His/Flag epitope tagged PCAF719-832) (Homo sapiens (Human), UniProt Q92831)
Test: PCAF AlphaLisa binding assay
Details: AlphaLisa; PCAF bromodomain 225 nM, biotinylated small molecule ligand 6 nM; read-out: PCAF IC50
Procedure: IC50 Measurements for Inhibitors Using PCAF AlphaLisa Binding Assay
PCAF bromodomain binding and inhibition of the compounds disclosed herein was assessed by monitoring the engagement of biotinylated small molecule ligand (known to bind to the PCAF bromodomain) with the target using the AlphaLisa technology (Perkin-Elmer).

Chain of PCAF bromodomain (His/Flag epitope tagged PCAF719-832) (Q92831 719-832): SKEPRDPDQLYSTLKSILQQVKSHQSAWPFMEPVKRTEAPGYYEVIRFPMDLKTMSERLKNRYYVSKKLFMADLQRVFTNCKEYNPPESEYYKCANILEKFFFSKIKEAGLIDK

Row | IC50 [µM] | Structure (SMILES)
1 | 0.466 | Cn1ncc(NC2CCCN(Cc3nc(-c4ccc(Cl)cc4)no3)C2)c(Cl)c1=O (stereo not shown) [Example 55, 4-chloro-5-[[1-[[3-(4-chlorophenyl)-1,2,4-oxadiazol-5-yl]methyl]-3-piperidyl]amino]-2-methyl-pyridazin-3-one]
2 | 0.139 | Cn1ncc(NC2CCCN(Cc3ccc(F)cc3)C2)c(Cl)c1=O (stereo not shown) [Example 56, 4-chloro-5-[[1-[(4-fluorophenyl)methyl]-3-piperidyl]amino]-2-methyl-pyridazin-3-one]
3 | 0.0329 | CN1CCCC[C@H](Nc2cnn(C)c(=O)c2Cl)C1 [Example 57, (S)-4-chloro-2-methyl-5-((1-methylazepan-3-yl)amino)pyridazin-3(2H)-one]
4 | 0.169 | CN1CCCC[C@@H](Nc2cnn(C)c(=O)c2Cl)C1 [Example 58, (R)-4-chloro-2-methyl-5-((1-methylazepan-3-yl)amino)pyridazin-3(2H)-one]
